Results taken from patent US11124497B1, “Inhibitors of cysteine proteases and methods of use thereof” (priority 2020, dated 2021).

Tests used:
229E mPRO = 229E mPRO (Human coronavirus 229E (HCoV-229E), UniProt P0C6X1); assay: 229E mPRO enzymatic assay; type: biochemical, Human Coronavirus (HCov) 229E; conditions: read-out: 229E mPRO IC50
Method: Compounds were assayed using standard methods to assess compound activity and IC50. […] The assay buffer contained 20 mM of Tris-HCl (pH 7.3), 100 mM of NaCl, 1 mM of EDTA, 5 mM of TCEP and 0.1% BSA.
The compounds were added to an assay plate.
IC50 values of compounds were calculated with the GraphPad Prism software using the nonlinear regression model of log(inhibitor) vs. response—Variable slope (four parameters). The inhibition activity was calculated using the formula below, IC50 values was calculated using the Inhibition % data. Inhibition %=[(Sample−Average ZPE)/(Average HPE−Average ZPE)]*100%^# • ^#HEP: Hundred percent effect controls. […] Containing enzyme+substrate, no compound. • Sample: Compound activity testing wells. Containing compound+enzyme+substrate. • BG: Compound background control wells. Containing compound+substrate, no enzyme.

SARS-COV2 Mpro = SARS-COV2 Mpro (Severe acute respiratory syndrome coronavirus 2 (2019-nCoV) (SARS-CoV-2), UniProt P0DTD1); assay: COVID-19 (nCoV-2019, SARS-CoV2) Mpro enzymatic assay; type: biochemical; conditions: 25 nM Mpro, 25 μM substrate
HCoV 229E = HCoV 229E cytopathic effect (CPE) assay; type: cell-based, Human Coronavirus (HCov) 229E; conditions: unidentified human coronavirus, CellTiter Glo, read-out: 229 ECPE EC50
Method: Compounds were assayed using standard methods against multiple coronaviral strains, including HCoV 229E and OC43 strains. The antiviral activity of compounds was calculated based on the protection of the virus-induced CPE at each concentration normalized by the virus control.
Cytopathic effect (CPE) was measured by CellTiter Glo following the manufacturer's manual. The antiviral activity of compounds was calculated based on the protection of the virus-induced CPE at each concentration normalized by the virus control.

[1] = Cytotoxicity under 229E CPE assay conditions without virus infection (CellTiter Glo)

Sequence of 229E mPRO (P0C6X1 2966-3267 limits assumed): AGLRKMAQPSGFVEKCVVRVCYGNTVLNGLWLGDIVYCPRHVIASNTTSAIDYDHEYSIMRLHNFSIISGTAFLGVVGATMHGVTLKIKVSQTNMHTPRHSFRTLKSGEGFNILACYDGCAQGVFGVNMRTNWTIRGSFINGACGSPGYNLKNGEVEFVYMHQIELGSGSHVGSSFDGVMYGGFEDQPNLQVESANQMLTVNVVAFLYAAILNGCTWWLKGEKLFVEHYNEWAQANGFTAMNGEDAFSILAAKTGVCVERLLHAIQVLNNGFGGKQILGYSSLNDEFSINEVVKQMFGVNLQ

`COc1cccc2[nH]c(C(=O)N[C@@H](CC(C)C)C(=O)N[C@@H](C#N)Cc3cc(=O)[nH]c4ccccc34)cc12` (mixture of isomers) [Compound 237] gave an IC50 (229E mPRO) greater than 30 µM and an IC50 (SARS-COV2 Mpro) greater than 30 µM.
Work on `COc1cccc2[nH]c(C(=O)N[C@@H](CC3CC3)C(=O)N[C@@]3(C#N)CCc4cccnc4C3)cc12` [Compound 279] yielded an IC50 (229E mPRO) greater than 30 µM and an IC50 (SARS-COV2 Mpro) greater than 30 µM.
`COc1cccc2[nH]c(C(=O)N3CC4(CCC4)CC3C(=O)N[C@H](C#N)C[C@@H]3CCCNC3=O)cc12` (single isomer, unassigned) [719 (Isomer 2)] gave an IC50 (229E mPRO) of less than 22 µM, an EC50 (HCoV 229E) of less than 22 µM and an IC50 (SARS-COV2 Mpro) of less than 22 µM.
Work on `N#C[C@H](C[C@@H]1CCNC1=O)NC(=O)[C@@H]1CS[C@H]2CC[C@H](N)C(=O)N21` [Compound 479] yielded an IC50 (229E mPRO) of 10 to 30 µM and an IC50 (SARS-COV2 Mpro) greater than 30 µM.
With `N#CC1(NC(=O)[C@H](CC2CC2)NC(=O)OCc2ccccc2)C[C@H]2CC[C@@H]1[C@H]1C(=O)NC(=O)[C@@H]21` (single isomer, unassigned) [495 (Isomer 1)] the IC50 (229E mPRO) was greater than 30 µM and the IC50 (SARS-COV2 Mpro) was greater than 30 µM.
`COc1cccc2[nH]c(C(=O)N[C@H](CN[C@H](C#N)C[C@@H]3CCNC3=O)CC(C)(C)C)cc12` [Compound 659] showed an IC50 (229E mPRO) greater than 30 µM and an IC50 (SARS-COV2 Mpro) greater than 30 µM.
Work on `CC(C)(C)OC(=O)N1CCCCC12CCN([C@@H](CC1CC1)C(=O)N[C@H](C#N)C[C@@H]1CCNC1=O)C2=O` (single isomer, unassigned) [473 (Isomer 2)] yielded an IC50 (229E mPRO) greater than 30 µM and an IC50 (SARS-COV2 Mpro) greater than 30 µM.
With `COc1cccc2[nH]c(C(=O)N3CC(c4ccccc4)CC3C(=O)NC(C#N)CC3CCNC3=O)cc12` (stereo not drawn) [Compound 170] the CC50 (in vitro) was greater than 30 µM.
With `CC(C)CC(NC(=O)c1nc2ncccc2[nH]1)C(=O)NC(C#N)CC1CCNC1=O` (single isomer, unassigned) [130 (Isomer 1)] the CC50 [1] was greater than 30 µM.
`COc1cccc2[nH]c(C(=O)N[C@@H](CC(C)C)C(=O)N[C@@H](C[C@@H]3CCNC3=O)C(C#N)NCC(=O)O)cc12` (stereo partly drawn) [Compound 653] showed an IC50 (229E mPRO) of less than 22 µM, an EC50 (HCoV 229E) of less than 22 µM and an IC50 (SARS-COV2 Mpro) of less than 22 µM.
In the case of `COc1cccc2[nH]c(C(=O)N[C@@H](CC(C)C)C(=O)N[C@H](C#N)Cc3cc[nH]n3)cc12` (mixture of isomers) [Compound 241], the IC50 (229E mPRO) is reported as greater than 30 µM and the IC50 (SARS-COV2 Mpro) is reported as greater than 30 µM.
Molecule `COc1cccc2[nH]c(C(=O)N[C@@H](CC(C)C)C(=O)N[C@H](C#N)Cc3cncn3C)cc12` [Compound 225, N-[(1S)-1-[[(1S)-1-cyano-2-(3-methylimidazol-4-yl)ethyl]carbamoyl]-3-methyl-butyl]-4-methoxy-1H-indole-2-carboxamide] has an IC50 (229E mPRO) greater than 30 µM and an IC50 (SARS-COV2 Mpro) greater than 30 µM.
Work on `N#C[C@H](C[C@@H]1CCNC1=O)NC(=O)[C@@H]1CCc2ccc(NCC(=O)O)c(=O)n21` [Compound 501] yielded an IC50 (229E mPRO) greater than 30 µM and an IC50 (SARS-COV2 Mpro) greater than 30 µM.
`CC[C@H]1CN(C(=O)c2cc3c(OC)cccc3[nH]2)[C@@H]1C(=O)N[C@H](C#N)C[C@@H]1CCNC1=O` [Compound 391] gave an IC50 (229E mPRO) greater than 30 µM and an IC50 (SARS-COV2 Mpro) greater than 30 µM.
In the case of `COc1cccc2[nH]c(C(=O)N3CC(C45CC(C4)C5)C[C@H]3C(=O)N[C@H](C#N)C[C@@H]3CCNC3=O)cc12` (single isomer, unassigned) [385 (Isomer 1)], the IC50 (229E mPRO) is reported as less than 22 µM and the EC50 (HCoV 229E) is reported as less than 22 µM.
For `N#C[C@H](C[C@@H]1CCNC1=O)NC(=O)[C@@H]1CCc2ccc(NCC(=O)Oc3ccccc3)c(=O)n21` [Compound 483], the IC50 (229E mPRO) was greater than 30 µM and the IC50 (SARS-COV2 Mpro) was greater than 30 µM.
Molecule `COc1cccc2[nH]c(C(=O)N[C@H](C(=O)N[C@H](C#N)C[C@@H]3CCNC3=O)C3Cc4ccccc4C3)cc12` [Compound 149, N-[(1S)-2-[[(1S)-1-cyano-2-[(3S)-2-oxopyrrolidin-3-yl]ethyl]amino]-1-indan-2-yl-2-oxo-ethyl]-4-methoxy-1H-indole-2-carboxamide] has an IC50 (229E mPRO) of 2 to 10 µM and an EC50 (HCoV 229E) of 2 to 10 µM.
In the case of `COc1nccc2[nH]c(C(=O)N[C@@H](CC3CC3)C(=O)N[C@H](C#N)C[C@@H]3CCCNC3=O)cc12` [Compound 623], the IC50 (229E mPRO) is reported as greater than 30 µM and the IC50 (SARS-COV2 Mpro) is reported as greater than 30 µM.
Molecule `COc1cccc2[nH]c(C(=O)N[C@@H](CC(C)(C)C)C(=O)N[C@H](C#N)C[C@@H]3CCCNC3=O)cc12` [Compound 643, N-[(1S)-1-[[(1S)-1-cyano-2-[(3S)-2-oxo-3-piperidyl]ethyl]carbamoyl]-3,3-dimethyl-butyl]-4-methoxy-1H-indole-2-carboxamide] has an IC50 (229E mPRO) of less than 22 µM and an EC50 (HCoV 229E) of less than 22 µM.
In the case of `COc1cccc2[nH]c(C(=O)N[C@@H](CC(C)C)C(=O)N[C@@H](C[C@@H]3CCNC3=O)C(O)C#N)cc12` (stereo partly drawn) [Compound 135, N-[(1S)-1-[[(1S)-2-cyano-2-hydroxy-1-[[(3S)-2-oxopyrrolidin-3-yl]methyl]ethyl]carbamoyl]-3-methyl-butyl]-4-methoxy-1H-indole-2-carboxamide], the EC50 (HCoV 229E) is reported as less than 22 µM and the CC50 (in vitro) is reported as greater than 30 µM.
Work on `COc1cccc2[nH]c(C(=O)N[C@@H](CC(C)C)C(=O)N[C@H](C#N)Cc3ccccn3)cc12` [Compound 439] yielded an IC50 (229E mPRO) greater than 30 µM and an IC50 (SARS-COV2 Mpro) of 10 to 30 µM.
With `N#C[C@H](C[C@@H]1CCNC1=O)NC(=O)[C@H](CC1CC1)n1ccc2[nH]cnc2c1=O` [Compound 269] the IC50 (229E mPRO) was greater than 30 µM and the IC50 (SARS-COV2 Mpro) was greater than 30 µM.
`COc1cccc2[nH]c(C(=O)N[C@@H](CC(C)C)C(=O)N[C@H](C#N)C[C@@H]3CCNC3=O)cc12` [Compound 101, N-[(1S)-1-[[(1S)-1-cyano-2-[(3S)-2-oxopyrrolidin-3-yl]ethyl]carbamoyl]-3-methyl-butyl]-4-methoxy-1H-indole-2-carboxamide] showed an IC50 (229E mPRO) of less than 22 µM and an EC50 (HCoV 229E) of less than 22 µM.
For `COc1cccc2[nH]c(C(=O)N[C@@H](CC(C)C)C(=O)N[C@@H](C[C@@H]3CCNC3=O)C(C#N)Nc3ccccc3)cc12` (stereo partly drawn) [Compound 327], the IC50 (229E mPRO) was less than 22 µM, the EC50 (HCoV 229E) was 2 to 10 µM and the IC50 (SARS-COV2 Mpro) was less than 22 µM.
For `COc1cccc2[nH]c(C(=O)N[C@@H](CC3CC3)C(=O)N[C@@]3(C#N)CC4CCC3[C@H]3C(=O)NC(=O)[C@@H]43)cc12` (single isomer, unassigned) [489 (Isomer 1)], the IC50 (229E mPRO) was greater than 30 µM and the IC50 (SARS-COV2 Mpro) was greater than 30 µM.
